Data from the NIST ThermoML archive (doi:10.1021/je200373q).

Assay: xn = mol fraction of the nth substance listed
Conditions: 101 kPa, Liquid, Vibrating tube method

CCCCCCCCC [nonane] + CCCCCCCC
mass density [kg/m3]
Conditions	x2 = 0.1017	x2 = 0.2023	x2 = 0.3016	x2 = 0.4	x2 = 0.4987	x2 = 0.6006	x2 = 0.7002	x2 = 0.7986	x2 = 0.8989
273.15 K	731.51	730.03	728.78	727.43	725.78	724.52	722.97	721.5	719.99
278.15 K	727.69	726.2	724.94	723.57	721.91	720.65	719.08	717.59	716.07
283.15 K	723.84	722.35	721.07	719.7	718.01	716.75	715.16	713.66	712.12
288.15 K	719.99	718.48	717.19	715.8	714.11	712.83	711.22	709.71	708.16
293.15 K	716.12	714.6	713.29	711.9	710.18	708.9	707.27	705.75	704.18
298.15 K	712.24	710.7	709.38	707.97	706.24	704.95	703.31	701.76	700.18
303.15 K	708.34	706.79	705.46	704.03	702.28	700.97	699.32	697.75	696.15
308.15 K	704.41	702.86	701.51	700.07	698.3	696.98	695.31	693.73	692.11
313.15 K	700.48	698.9	697.54	696.08	694.3	692.97	691.28	689.68	688.04
318.15 K	696.52	694.93	693.55	692.08	690.27	688.92	687.22	685.6	683.95
323.15 K	692.53	690.93	689.53	688.05	686.22	684.87	683.14	681.5	679.83
328.15 K	688.53	686.91	685.49	683.99	682.15	680.78	679.03	677.37	675.69
333.15 K	684.5	682.86	681.43	679.91	678.05	676.66	674.89	673.22	671.51
338.15 K	680.44	678.78	677.34	675.8	673.91	672.5	670.73	669.03	667.3
343.15 K	676.36	674.68	673.22	671.66	669.75	668.33	666.53	664.81	663.06
348.15 K	672.25	670.55	669.07	667.5	665.56	664.12	662.3	660.56	658.78
353.15 K	668.11	666.39	664.88	663.29	661.33	659.87	658.02	656.27	654.47
358.15 K	663.93	662.18	660.67	659.05	657.07	655.6	653.72	651.94	650.1
363.15 K	659.72	657.95	656.41	654.78	652.77	651.27	649.36	647.56	645.72

CCCCC [pentane] + CCCCCCCC
mass density [kg/m3]
Conditions	x1 = 0.1002	x1 = 0.2008	x1 = 0.3023	x1 = 0.4019	x1 = 0.5001	x1 = 0.5982	x1 = 0.7022	x1 = 0.8003	x1 = 0.8991
278.15 K	709.35	704.52	698.24	691.87	685.19	678	669.63	660.99	651.39
283.15 K	705.34	700.46	694.11	687.66	680.91	673.65	665.18	656.45	646.73
288.15 K	701.31	696.38	689.94	683.43	676.6	669.26	660.68	651.85	642.04
293.15 K	697.26	692.29	685.74	679.16	672.26	664.83	656.15	647.21	637.29
298.15 K	693.19	688.16	681.52	674.87	667.88	660.37	651.58	642.52	632.49
303.15 K	689.09	684.01	677.28	670.54	663.47	655.87	646.96	637.79	627.64
308.15 K	684.97	679.84	673	666.19	659.03	651.33	642.31	633	622.72
313.15 K	680.83	675.63	668.7	661.8	654.59	646.75	637.61	628.16	617.96
318.16 K	676.64	671.38	664.36	657.38	650.06	642.12	632.85	623.27	–
323.16 K	672.43	667.11	659.99	652.92	645.5	637.45	628.04	–	–
328.16 K	668.2	662.81	655.59	648.42	640.9	632.73	–	–	–
333.15 K	663.94	658.48	651.16	–	–	–	–	–	–
338.15 K	659.63	654.1	646.68	–	–	–	–	–	–
343.15 K	655.28	649.68	642.13	–	–	–	–	–	–
348.15 K	650.9	645.21	637.57	–	–	–	–	–	–
353.15 K	646.47	640.7	632.94	–	–	–	–	–	–
358.15 K	642	636.15	628.27	–	–	–	–	–	–
363.15 K	637.48	631.54	623.54	–	–	–	–	–	–

CCCCC [pentane] + CCCCCCCCC
mass density [kg/m3]
Conditions	x1 = 0.1034	x1 = 0.205	x1 = 0.3028	x1 = 0.4006	x1 = 0.5016	x1 = 0.5988	x1 = 0.6992	x1 = 0.7993	x1 = 0.8993
273.15 K	727.17	721.15	714.81	707.86	700	691.84	682.27	672.39	659.26
278.15 K	723.31	717.24	710.84	703.82	695.88	687.64	677.96	667.97	654.69
283.15 K	719.43	713.31	706.84	699.75	691.73	683.4	673.62	663.51	650.07
288.15 K	715.53	709.35	702.82	695.66	687.56	679.14	669.25	659.01	645.41
293.15 K	711.62	705.38	698.79	691.54	683.36	674.84	664.84	654.47	640.71
298.15 K	707.69	701.39	694.73	687.41	679.13	670.52	660.39	649.88	635.96
303.15 K	703.75	697.38	690.65	683.24	674.87	666.16	655.91	645.26	631.15
308.15 K	699.78	693.35	686.54	679.05	670.58	661.76	651.39	640.58	626.28
313.15 K	695.79	689.3	682.41	674.83	666.26	657.33	646.82	635.85	621.36
318.15 K	691.78	685.21	678.25	670.58	661.9	652.86	642.21	631.07	616.37
323.15 K	687.74	681.1	674.06	666.29	657.51	648.34	637.54	626.24	–
328.15 K	683.68	676.97	669.83	661.97	653.07	643.78	632.82	621.34	–
333.15 K	679.6	672.8	665.58	657.61	648.6	639.17	628.05	616.38	–
338.15 K	675.48	668.6	661.28	653.21	644.08	634.51	–	–	–
343.15 K	671.34	664.37	656.96	648.78	–	–	–	–	–
348.15 K	667.16	660.1	652.59	644.3	–	–	–	–	–
353.15 K	662.95	655.79	648.19	639.79	–	–	–	–	–
358.15 K	658.7	651.45	643.74	–	–	–	–	–	–
363.15 K	654.42	647.07	639.25	–	–	–	–	–	–
